Data on 1 compound can be found in patent US7153964B2, “Pyrimidine compounds” (AstraZeneca AB, priority 2000, dated 2006).

SMILES strings stand for the structures. pIC50: −log10 of the molar value.

For this assay, the target named is T1, CDK2 (Homo sapiens, UniProt P24941).
T1 construct: made in house; host or cells: Sf21 insect cells (stated for the CDK2/Cyclin E option; by analogy to CDK4/Cyclin D1 baculovirus co-infection)
The experiment in a line: CDK2 inhibition assay (in vitro kinase SPA, by analogy to the CDK4 assay). The settings on record: read-out: CDK2 inhibitory activity IC50. Format: biochemical. The method, then: The compounds were tested in an in vitro kinase assay in 96 well format using Scintillation Proximity Assay (SPA—obtained from Amersham) for measuring incorporation of [γ-33-P]-Adenosine Triphosphate into a test substrate (GST-Retinoblastoma). In each well was placed the compound to be tested (diluted in DMSO and water to correct concentrations) and in control wells either p16 as an inhibitor control or DMSO as a positive control.
Approximately 0.5 μl of CDK4/Cyclin D1 partially-purified enzyme (amount dependent on enzyme activity) diluted in 25 μl incubation buffer was added to each well then 20 μl of GST-Rb/ATP/ATP33 mixture (containing 0.5 μg GST-Rb and 0.2 μM ATP and 0.14 μCi [γ-33-P]-Adenosine Triphosphate), and the resulting mixture shaken gently, then incubated at room temperature for 60 minutes.
To each well was then added 150 μL stop solution containing (0.8 mg/well of Protein A-PVT SPA bead (Amersham)), 20 pM/well of Anti-Glutathione Transferase, Rabbit IgG (obtained from Molecular Probes), 61 mM EDTA and 50 mM HEPES pH 7.5 containing 0.05% sodium azide.
The plates were sealed with Topseal-S plate sealers, left for two hours then spun at 2500 rpm, 1124×g., for 5 minutes. The plates were read on a Topcount for 30 seconds per well. […]

For the compound `N#Cc1ccccc1Nc1nc(Nc2ccc(S(N)(=O)=O)cc2)ncc1Cl` [Example 23, 2-(4-Sulphamoylanilino)-4-(2-cyanoanilino)-5-chloropyrimidine], the pIC50 was 6.46.
